#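 In this assay, cells in 96-well plates receive the compound at five concentrations for 48 hours. Endpoints are linearly interpolated between the surrounding concentrations. Abbreviation: GI50, concentration required for 50% inhibition of growth. TGI is the concentration that stops growth completely.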
# How the values were obtained:
# Test in all cases: NCI-60 cell line screen, 48 h
# SR leukemia = system: SR leukemia
# NCI-H23 lung = system: NCI-H23 lung
# HCC-2998 colon = system: HCC-2998 colon
# HL-60(TB) leukemia = system: HL-60(TB) leukemia
# SF-539 CNS = system: SF-539 CNS
# RPMI-8226 leukemia = system: RPMI-8226 leukemia
# SNB-75 CNS = system: SNB-75 CNS
# A498 renal = system: A498 renal
# HOP-92 NSCLC = system: HOP-92 NSCLC
# M14 melanoma = system: M14 melanoma
# T-47D breast = system: T-47D breast
# MDA-MB-435 = system: MDA-MB-435
# UACC-62 melanoma = system: UACC-62 melanoma
# HCT-15 colon = system: HCT-15 colon
# HS 578T breast = system: HS 578T breast
# SNB-19 CNS = system: SNB-19 CNS
# HT29 colon = system: HT29 colon
# COLO 205 colon = system: COLO 205 colon
# UO-31 renal = system: UO-31 renal
# NCI-H226 lung = system: NCI-H226 lung
# SK-MEL-5 melanoma = system: SK-MEL-5 melanoma
# MCF7 breast = system: MCF7 breast
# MOLT-4 leukemia = system: MOLT-4 leukemia
# PC-3 prostate = system: PC-3 prostate
# NCI-H460 lung = system: NCI-H460 lung
# MDA-MB-231 breast = system: MDA-MB-231 breast
# 786-0 renal = system: 786-0 renal
# SW-620 colon = system: SW-620 colon
# KM12 colon = system: KM12 colon
# IGROV1 ovarian = system: IGROV1 ovarian
# OVCAR-8 ovarian = system: OVCAR-8 ovarian
# SK-MEL-2 melanoma = system: SK-MEL-2 melanoma
# MALME-3M melanoma = system: MALME-3M melanoma
# RXF 393 renal = system: RXF 393 renal
# SN12C renal = system: SN12C renal
# SK-OV-3 ovarian = system: SK-OV-3 ovarian
# NCI/ADR-RES ovarian = system: NCI/ADR-RES ovarian
# K-562 leukemia = system: K-562 leukemia
# OVCAR-4 ovarian = system: OVCAR-4 ovarian
# HCT-116 colon = system: HCT-116 colon
# CAKI-1 renal = system: CAKI-1 renal
# NCI-H522 lung = system: NCI-H522 lung
# OVCAR-3 ovarian = system: OVCAR-3 ovarian
# HOP-62 NSCLC = system: HOP-62 NSCLC
# BT-549 breast = system: BT-549 breast
# OVCAR-5 ovarian = system: OVCAR-5 ovarian
# U251 CNS = system: U251 CNS
# CCRF-CEM leukemia = system: CCRF-CEM leukemia
# UACC-257 melanoma = system: UACC-257 melanoma
# SK-MEL-28 melanoma = system: SK-MEL-28 melanoma
# ACHN renal = system: ACHN renal
# TK-10 renal = system: TK-10 renal
# A549 NSCLC = system: A549 NSCLC
# DU-145 prostate = system: DU-145 prostate
# SF-268 CNS = system: SF-268 CNS
# LOX IMVI melanoma = system: LOX IMVI melanoma
smiles,measurement,setting,value
CCOC(=O)N1C/C(=C/c2ccc(F)cc2)C(=O)/C(=C/c2ccc(F)cc2)C1,GI50,SR leukemia,0.341 µM
same,TGI,SR leukemia,3.61 µM
same,GI50,NCI-H23 lung,2.35 µM
same,TGI,NCI-H23 lung,5.67 µM
same,GI50,HCC-2998 colon,1.84 µM
same,TGI,HCC-2998 colon,3.29 µM
same,GI50,HL-60(TB) leukemia,3.18 µM
same,TGI,HL-60(TB) leukemia,10.6 µM
same,GI50,SF-539 CNS,1.76 µM
same,TGI,SF-539 CNS,3.3 µM
same,GI50,RPMI-8226 leukemia,0.201 µM
same,TGI,RPMI-8226 leukemia,0.772 µM
same,GI50,SNB-75 CNS,2.6 µM
same,TGI,SNB-75 CNS,10.7 µM
same,GI50,A498 renal,2.16 µM
same,TGI,A498 renal,5.12 µM
same,GI50,HOP-92 NSCLC,1.65 µM
same,TGI,HOP-92 NSCLC,4.64 µM
same,GI50,M14 melanoma,2.07 µM
same,TGI,M14 melanoma,4.67 µM
same,GI50,T-47D breast,2.82 µM
same,TGI,T-47D breast,7.97 µM
same,GI50,MDA-MB-435,1.22 µM
same,TGI,MDA-MB-435,3.73 µM
same,GI50,UACC-62 melanoma,1.61 µM
same,TGI,UACC-62 melanoma,3.39 µM
same,GI50,HCT-15 colon,1.16 µM
same,TGI,HCT-15 colon,3.02 µM
same,GI50,HS 578T breast,3.13 µM
same,TGI,HS 578T breast,29 µM
same,GI50,SNB-19 CNS,2.08 µM
same,TGI,SNB-19 CNS,6.31 µM
same,GI50,HT29 colon,0.363 µM
same,TGI,HT29 colon,1.37 µM
same,GI50,COLO 205 colon,1.92 µM
same,TGI,COLO 205 colon,3.54 µM
same,GI50,UO-31 renal,1.53 µM
same,TGI,UO-31 renal,3.07 µM
same,GI50,NCI-H226 lung,3.52 µM
same,TGI,NCI-H226 lung,19.8 µM
same,GI50,SK-MEL-5 melanoma,1.36 µM
same,TGI,SK-MEL-5 melanoma,2.67 µM
same,GI50,MCF7 breast,0.327 µM
same,TGI,MCF7 breast,1.39 µM
same,GI50,MOLT-4 leukemia,2.6 µM
same,TGI,MOLT-4 leukemia,7.84 µM
same,GI50,PC-3 prostate,1.85 µM
same,TGI,PC-3 prostate,5.46 µM
same,GI50,NCI-H460 lung,1.96 µM
same,TGI,NCI-H460 lung,4.56 µM
same,GI50,MDA-MB-231 breast,1.81 µM
same,TGI,MDA-MB-231 breast,4.18 µM
same,GI50,786-0 renal,1.69 µM
same,TGI,786-0 renal,3.62 µM
same,GI50,SW-620 colon,0.487 µM
same,TGI,SW-620 colon,1.74 µM
same,GI50,KM12 colon,0.641 µM
same,TGI,KM12 colon,2.04 µM
same,GI50,IGROV1 ovarian,2.39 µM
same,TGI,IGROV1 ovarian,6.12 µM
same,GI50,OVCAR-8 ovarian,2.47 µM
same,TGI,OVCAR-8 ovarian,10.8 µM
same,GI50,SK-MEL-2 melanoma,2.88 µM
same,TGI,SK-MEL-2 melanoma,6.39 µM
same,GI50,MALME-3M melanoma,2.34 µM
same,TGI,MALME-3M melanoma,5.58 µM
same,GI50,RXF 393 renal,1.63 µM
same,TGI,RXF 393 renal,3.11 µM
same,GI50,SN12C renal,1.59 µM
same,TGI,SN12C renal,3.16 µM
same,GI50,SK-OV-3 ovarian,2.22 µM
same,TGI,SK-OV-3 ovarian,4.71 µM
same,GI50,NCI/ADR-RES ovarian,3.28 µM
same,TGI,NCI/ADR-RES ovarian,21.1 µM
same,GI50,K-562 leukemia,0.754 µM
same,TGI,K-562 leukemia,> 100 µM
same,GI50,OVCAR-4 ovarian,2.24 µM
same,TGI,OVCAR-4 ovarian,6.38 µM
same,GI50,HCT-116 colon,0.205 µM
same,TGI,HCT-116 colon,0.397 µM
same,GI50,CAKI-1 renal,3.01 µM
same,TGI,CAKI-1 renal,12.1 µM
same,GI50,NCI-H522 lung,1.95 µM
same,TGI,NCI-H522 lung,3.98 µM
same,GI50,OVCAR-3 ovarian,1.85 µM
same,TGI,OVCAR-3 ovarian,3.47 µM
same,GI50,HOP-62 NSCLC,2.1 µM
same,TGI,HOP-62 NSCLC,4.24 µM
same,GI50,BT-549 breast,1.65 µM
same,TGI,BT-549 breast,3.09 µM
same,GI50,OVCAR-5 ovarian,1.89 µM
same,TGI,OVCAR-5 ovarian,3.83 µM
same,GI50,U251 CNS,1.19 µM
same,TGI,U251 CNS,2.55 µM
same,GI50,CCRF-CEM leukemia,0.758 µM
same,TGI,CCRF-CEM leukemia,5.64 µM
same,GI50,UACC-257 melanoma,2.86 µM
same,TGI,UACC-257 melanoma,9.65 µM
same,GI50,SK-MEL-28 melanoma,1.8 µM
same,TGI,SK-MEL-28 melanoma,3.35 µM
same,GI50,ACHN renal,1.86 µM
same,TGI,ACHN renal,3.42 µM
same,GI50,TK-10 renal,2.87 µM
same,TGI,TK-10 renal,6.99 µM
same,GI50,A549 NSCLC,2.64 µM
same,TGI,A549 NSCLC,8.65 µM
same,GI50,DU-145 prostate,3.48 µM
same,TGI,DU-145 prostate,10.9 µM
same,GI50,SF-268 CNS,2.2 µM
same,TGI,SF-268 CNS,5.52 µM
same,GI50,LOX IMVI melanoma,0.327 µM
same,TGI,LOX IMVI melanoma,1.1 µM

# Reference: PubChem BioAssay (NCI)
